Like-named read-outs stand apart in the source and are kept apart here.
Assay: PK of compound of Formula (Ia) after single subcutaneous dose of solution formulations in Wistar Han rats
Format: in vivo
Settings: male, Wistar Han, rat, plasma, sc, 50 mg/kg, mean ± SD
Description: Formulations containing the compound of Formula (Ia), or a pharmaceutically acceptable salt thereof, were prepared as solutions and optionally administered subcutaneously or intramuscularly to rats, rabbits, and/or dogs.
(§1) A solution of about 400 mg/mL of the compound of Formula (Ia) having 19.14 w/w % water, 40.66 w/w % PEG 300, 35.20 w/w % of a sodium salt of a compound of Formula (Ia), and 5.00% ethanol was prepared. The solution was administered subcutaneously to male Wistar Han rats at a dose level of about 50 mg/kg and dose volume of 0.125 mL/kg and the pharmacokinetic (PK) profile was determined.
as §1, with “500” for “400”, “16.64” for “19.14”, “35.36” for “40.66”, “43.00” for “35.20”, “0.1” for “0.125”
(§2) A solution of about 400 mg/mL of the compound of Formula (Ia) having 17.00 w/w % water, 36.40 w/w % PEG 300, 35.20 w/w % of a sodium salt of a compound of Formula (Ia), 5.00 w/w % ethanol, and 6.40 w/w % poloxamer 188 was prepared. The solution was administered subcutaneously to male beagle dogs at a dose level of about 12 mg/kg and male Wistar Han rats at a dose level of about 50 mg/kg. The pharmacokinetic profiles were determined, and the results for dogs are summarized in Table and Table, while the results for rats are summarized in Table and Table below.
as §2, with “500” for “400”, “14.06” for “17.00”, “30.12” for “36.40”
A solution of about 300 mg/mL of the compound of Formula (Ia) having 23.33 w/w % water, 48.99 w/w % PEG 300, 26.47 w/w % of a sodium salt of a compound of Formula (Ia), and 1.21 w/w % poloxamer 188 was prepared. The solution was administered subcutaneously to male beagle dogs at a dose level of about 6 mg/kg and male Wistar Han rats at a dose level of about 50 mg/kg. The pharmacokinetic profiles were determined, and the results for dogs are summarized in Table and Table, while the results for rats are summarized in Table and Table below.
as §2, with “18.80” for “17.00”, “40.25” for “36.40”, “34.38” for “35.20”, “1.57” for “6.40”
as §2, with “500” for “400”, “16.29” for “17.00”, “34.88” for “36.40”, “41.92” for “35.20”, “1.91” for “6.40”
A solution of about 400 mg/mL of the compound of Formula (Ia) having 20.90 w/w % water, 44.72 w/w % PEG 300, and 34.38 w/w % of a sodium salt of a compound of Formula (Ia) was prepared. […]

Compound CC(C)(C#Cc1ccc(-c2ccc(Cl)c3c(NS(C)(=O)=O)nn(CC(F)(F)F)c23)c([C@H](Cc2cc(F)cc(F)c2)NC(=O)Cn2nc(C(F)(F)F)c3c2C(F)(F)[C@@H]2C[C@H]32)n1)S(C)(=O)=O [compound of Formula (Ia)] has an AUC(0-t) (male Wistar Han rats, single SC 50 mg/kg, 400 mg/mL solution Y (water, PEG 300), n = 4, read-out: AUC0-336 h) of 31.6 ± 10.9 µM·h, an AUC(0-t) (male Wistar Han rats, single SC 50 mg/kg, 400 mg/mL solution Y (water, PEG 300), n = 4, read-out: AUC0-672 h) of 74.9 ± 33.7 µM·h and an AUC(0-t) (male Wistar Han rats, single SC 50 mg/kg, 400 mg/mL solution Y (water, PEG 300), n = 4, read-out: AUC0-1008 h) of 128 ± 64 µM·h. The AUC(0-t) (male Wistar Han rats, single SC 50 mg/kg, 400 mg/mL solution Y (water, PEG 300), n = 4, read-out: AUC0-1344 h) was 182 ± 100 µM·h, the AUC(0-t) (male Wistar Han rats, single SC 50 mg/kg, 400 mg/mL solution Y (water, PEG 300), n = 4, read-out: AUC0-1680 h) was 230 ± 132 µM·h and the AUC(0-t) (male Wistar Han rats, single SC 50 mg/kg, 400 mg/mL solution Y (water, PEG 300), n = 4, read-out: AUC0-2352 h) was 312 ± 181 µM·h. The AUC(0-t) (male Wistar Han rats, single SC 50 mg/kg, 400 mg/mL solution Y (water, PEG 300), n = 4, read-out: AUC0-3024 h) was 389 ± 229 µM·h, the AUC(0-t) (male Wistar Han rats, single SC 50 mg/kg, 400 mg/mL solution Y (water, PEG 300), n = 4, read-out: AUC0-3696 h) was 454 ± 255 µM·h and the AUC(0-t) (male Wistar Han rats, single SC 50 mg/kg, 400 mg/mL solution Z (3.13% poloxamer 188), n = 4, read-out: AUC0-24 h) was 2.37 ± 1.6 µM·h. The AUC(0-t) (male Wistar Han rats, single SC 50 mg/kg, 400 mg/mL solution Z (3.13% poloxamer 188), n = 4, read-out: AUC0-168 h) was 23.9 ± 12.4 µM·h, the AUC(0-t) (male Wistar Han rats, single SC 50 mg/kg, 400 mg/mL solution Z (3.13% poloxamer 188), n = 4, read-out: AUC0-336 h) was 49.4 ± 25.4 µM·h and the AUC(0-t) (male Wistar Han rats, single SC 50 mg/kg, 400 mg/mL solution Z (3.13% poloxamer 188), n = 4, read-out: AUC0-672 h) was 106 ± 49 µM·h. The AUC(0-t) (male Wistar Han rats, single SC 50 mg/kg, 400 mg/mL solution Z (3.13% poloxamer 188), n = 4, read-out: AUC0-1008 h) was 163 ± 68 µM·h, the AUC(0-t) (male Wistar Han rats, single SC 50 mg/kg, 400 mg/mL solution Z (3.13% poloxamer 188), n = 4, read-out: AUC0-1344 h) was 214 ± 85 µM·h and the AUC(0-t) (male Wistar Han rats, single SC 50 mg/kg, 400 mg/mL solution Z (3.13% poloxamer 188), n = 4, read-out: AUC0-1680 h) was 259 ± 99 µM·h. It also gave an AUC(0-t) (male Wistar Han rats, single SC 50 mg/kg, 400 mg/mL solution Z (3.13% poloxamer 188), n = 4, read-out: AUC0-2352 h) of 344 ± 117 µM·h, an AUC(0-t) (male Wistar Han rats, single SC 50 mg/kg, 400 mg/mL solution Z (3.13% poloxamer 188), n = 4, read-out: AUC0-3024 h) of 435 ± 129 µM·h and an AUC(0-t) (male Wistar Han rats, single SC 50 mg/kg, 400 mg/mL solution Z (3.13% poloxamer 188), n = 4, read-out: AUC0-3696 h) of 544 ± 156 µM·h. For the same compound, the AUC(0-t) (male Wistar Han rats, single SC 50 mg/kg, 500 mg/mL solution X (5.00% ethanol, 1.91% poloxamer 188), n = 3, read-out: AUC0-24 h) was 2.82 ± 0.53 µM·h, the AUC(0-t) (male Wistar Han rats, single SC 50 mg/kg, 500 mg/mL solution X (5.00% ethanol, 1.91% poloxamer 188), n = 3, read-out: AUC0-168 h) was 30.1 ± 5.1 µM·h and the AUC(0-t) (male Wistar Han rats, single SC 50 mg/kg, 500 mg/mL solution X (5.00% ethanol, 1.91% poloxamer 188), n = 3, read-out: AUC0-336 h) was 64.5 ± 11.4 µM·h. It also gave an AUC(0-t) (male Wistar Han rats, single SC 50 mg/kg, 500 mg/mL solution X (5.00% ethanol, 1.91% poloxamer 188), n = 3, read-out: AUC0-672 h) of 152 ± 23 µM·h, an AUC(0-t) (male Wistar Han rats, single SC 50 mg/kg, 500 mg/mL solution X (5.00% ethanol, 1.91% poloxamer 188), n = 3, read-out: AUC0-1008 h) of 244 ± 29 µM·h and an AUC(0-t) (male Wistar Han rats, single SC 50 mg/kg, 500 mg/mL solution X (5.00% ethanol, 1.91% poloxamer 188), n = 3, read-out: AUC0-1344 h) of 329 ± 35 µM·h. The AUC(0-t) (male Wistar Han rats, single SC 50 mg/kg, 500 mg/mL solution X (5.00% ethanol, 1.91% poloxamer 188), n = 3, read-out: AUC0-1680 h) was 416 ± 47 µM·h, the AUC(0-t) (male Wistar Han rats, single SC 50 mg/kg, 500 mg/mL solution X (5.00% ethanol, 1.91% poloxamer 188), n = 3, read-out: AUC0-2352 h) was 549 ± 64 µM·h and the AUC(0-t) (male Wistar Han rats, single SC 50 mg/kg, 500 mg/mL solution X (5.00% ethanol, 1.91% poloxamer 188), n = 3, read-out: AUC0-3024 h) was 659 ± 80 µM·h. For the same compound, the AUC(0-t) (male Wistar Han rats, single SC 50 mg/kg, 500 mg/mL solution X (5.00% ethanol, 1.91% poloxamer 188), n = 3, read-out: AUC0-3696 h) was 761 ± 84 µM·h, the AUC(0-t) (male Wistar Han rats, single SC 50 mg/kg, 500 mg/mL solution X (5.00% ethanol, 1.91% poloxamer 188), n = 3, read-out: AUC0-4704 h) was 806 ± 83 µM·h and the Cmax (n = 3 rats, SC 50 mg/kg, solution R, 400 mg/mL) was 370 ± 65 nM. The AUC(0-t) (n = 3 rats, SC 50 mg/kg, solution R, 400 mg/mL, read-out: AUC0-24h) was 3.02 ± 0.65 µM·h, the AUC(0-t) (n = 3 rats, SC 50 mg/kg, solution R, 400 mg/mL, read-out: AUC0-168h) was 25.2 ± 5.3 µM·h and the AUC(0-t) (n = 3 rats, SC 50 mg/kg, solution R, 400 mg/mL, read-out: AUC0-336h) was 60.6 ± 8.3 µM·h. For the same compound, the AUC(0-t) (n = 3 rats, SC 50 mg/kg, solution R, 400 mg/mL, read-out: AUC0-672h) was 170 ± 5.4 µM·h and the AUC(0-t) (n = 3 rats, SC 50 mg/kg, solution R, 400 mg/mL, read-out: AUC0-1008h) was 287 ± 32 µM·h.
